Data: US5547965A, “Use of substituted amines for the treatment of brain function disorders” (Bayer Aktiengesellschaft, priority 1994, dated 1996)

Tested on: rats
Assay: rat forced swimming test
Type: in vivo
Details: po, 5 min, period of immobility over 5 minutes, administered between the two swimming tests
Text: The activity of the substituted amines described in the treatment and prevention of affective disorders is confirmed with the aid of the "rat forced swimming test". This behavioural model was described for the first time by R. D. Porsolt et al. (Nature 266; 730, 1977) and today is a generally recognized in-vivo screening model for the discovery of new antidepressants. It is based on the observation that rats in a hopeless situation remain in an immobile position ("behavioural despair"). In a preliminary test, young adult rats (3-4 months old) are placed individually for 20 minutes in glass cylinders (height 40 cm, diameter 20 cm) which are filled with water to a height of 15 cm. 24 hours after this preliminary test, the animals are again transferred to the cylinders and the period of immobility is measured over a space of time of 5 minutes.
The substituted amines described are administered in the time interval between the two swimming tests. Controls receive the vehicle.

Q: `CC(=O)NCCN1CC([N+](=O)[O-])=C2N(Cc3ccc(Cl)nc3)CCN2C1` [Example 3] was tested. Which ED50 did it give?
A: Its ED50 is 4.1 mg/kg.

Q: How did the ED50 turn out when `O=[N+]([O-])C=C1NCCN1Cc1cnc(Cl)s1` [Example 10] was run?
A: The ED50 was 1.5 mg/kg.

Q: With `O=[N+]([O-])N=C1NCCN1Cc1cccnc1` [Example 12] as the compound, how does the ED50 read?
A: The ED50 was 2.5 mg/kg.

Molecular target: Nicotine receptor
Assay: [3H]-cytisine displacement in rat brain membrane preparation
Type: binding
Details: negative common logarithm of the concentration giving 50% displacement of specifically bound [3H]-cytisine; rat brain homogenate, 22° C., 60 min
Procedure: The effect on nicotinergic receptors of the central nervous system is determined by a generally customary standard method for receptor binding studies (E. C. Hulme, Editor, Receptor-Ligand Interactions, Oxford University Press, 1992, pp 1-458). The binding was measured here by displacement of [^3 H]-cytisine by the active compounds in the rat brain membrane preparation.
Rats were sacrificed by decapitation and the entire brain was then removed immediately and processed. All following steps were carried out with cooling to 4° C. The brain was homogenized in sucrose solution (110 g of sucrose/l; 20 ml of solution per 1 g of brain mass) with the aid of a mixer. Coarse constituents were removed by centrifugation of the homogenate for 10 min at 1200 g and subsequent filtration through 5 layers of muslin. The suspension which remained (called homogenate in the following) was frozen and stored at -20° C. until use.
Buffer A for the test batch: 100 mM K2 HPO4 /KH2 PO4, pH 7.4, containing 1 g/ of bovine serum albumin.
For the determination of the displacement of [^3 H]-cytisine by the active compounds the following batch (1 ml total volume) was mixed together: 250 μl of thawed homogenate, 600 μl of buffer, 100 μl of active compound solution in buffer A (containing a concentration series in dilution steps with a factor of 10 between a maximum of 10^-2 M and a minimum of 10^-10 M of active compound, and 2 μl of methanol, from a concentrated stock solution of the active compounds), 50 μl of (^3 H)-cytisine solution in buffer A (containing 1.48 pmol of (^3 H)-cytisine, corresponding to 1.67 KBq, and 5 μl of ethanol, from a concentrated stock solution). In controls which contained no homogenate or no active compound, the missing volume was replaced by buffer A.
The batches were incubated at 22° C. in a shaking water bath for 60 min. To end incubation of the batches, 3 ml of ice-cold buffer A was added in each case and the whole solution was rapidly filtered through GF/C glass fibre filters. The filters were premoistened with a 1% strength solution of Prosil in buffer A. The filters were also washed twice with 3 ml of ice-cold buffer A each time. The filters were then removed and the radioactivity bound to the filters was determined in a liquid scintillation apparatus after addition of 10 ml of suitable scintillation cocktail.
All values were determined in duplicate and averaged. The concentration of active compound which leads to a 50% displacement of the specifically bound [^3 H]-cytisine was calculated from the concentration series by a logit transformation or by the 4-parameter logistic model (T. Chard; An Introduction to Radioimmunoassay and Related Techniques; Elsevier, Amsterdam, 1990; pp 613-171; statistical assessment by computer). The negative common logarithm of this concentration is called the pI50 in the following.

Q: How did the pI30 turn out when `CCCC(c1ccc(F)cc1)N1CNC(NCc2ccc(Cl)nc2)=C([N+](=O)[O-])C1` (stereo not shown) [Example 1] was run?
A: Its pI30 is 6.6.

Q: With `O=[N+]([O-])C=C1NCCN1Cc1ccc(Cl)c(F)c1` [Example 2] as the compound, how does the pI30 read?
A: The pI30 was 5.3.

Q: With `CC(=O)NCCN1CC([N+](=O)[O-])=C2N(Cc3ccc(Cl)nc3)CCN2C1` [Example 3] as the compound, how does the pI30 read?
A: The pI30 was 6.5.

Q: How did the pI30 turn out when `COc1cccc(CN2CCN(Cc3ccc(Cl)nc3)C2=N[N+](=O)[O-])c1` [Example 4] was run?
A: Its pI30 is 5.1.

Q: With `CC(=NC#N)N(C)Cc1ccc(Cl)nc1` [Example 5] as the compound, how does the pI30 read?
A: Its pI30 is 6.2.

Q: Which pI30 does the source give for `NC(=N[N+](=O)[O-])N1CCN(Cc2ccc(Cl)nc2)C1` [Example 6] here?
A: Its pI30 is 4.8.

Q: With `O=[N+]([O-])C=C1NCCN1Cc1cccnc1` [Example 7] as the compound, how does the pI30 read?
A: Its pI30 is 5.9.

Q: How did the pI30 turn out when `O=[N+]([O-])C=C1NCCN1Cc1ccncc1` [Example 8] was run?
A: Its pI30 is 4.6.

Q: For `Cc1ccc(CN2CCNC2=C[N+](=O)[O-])cn1` [Example 9], which pI30 is on record?
A: Its pI30 is 6.4.

Q: For `O=[N+]([O-])C=C1NCCN1Cc1cnc(Cl)s1` [Example 10], which pI30 is on record?
A: The pI30 was 6.2.

Q: `N#CC=C1NCCN1Cc1ccc(Cl)nc1` [Example 11] was tested. Which pI30 did it give?
A: The pI30 was 5.8.

Q: `O=[N+]([O-])N=C1NCCN1Cc1cccnc1` [Example 12] was tested. Which pI30 did it give?
A: Its pI30 is 5.7.

Q: For `N#CC=C1CCCN1Cc1ccc(Cl)nc1` [Example 13], which pI30 is on record?
A: Its pI30 is 6.6.

Q: `O=[N+]([O-])C=C1OCCN1Cc1ccc(Cl)nc1` [Example 14] was tested. Which pI30 did it give?
A: The pI30 was 6.4.

Q: For `CN1CN(C)C(=N[N+](=O)[O-])N(Cc2ccc(Cl)nc2)C1` [Example 15], which pI30 is on record?
A: The pI30 was 5.2.

Q: How did the pI30 turn out when `O=[N+]([O-])C=C1NCCN1c1ccc(Cl)nc1` [Example 16] was run?
A: Its pI30 is 4.6.
